The results in this text go back to patent US11938121B2, “Treatment of infections and biofilm formation using a cellulose synthase inhibitor” (Purdue Research Foundation, priority 2020, dated 2024).

In one test the test system is Arabidopsis Col-0. Kind of test: Crystalline cellulose content measurement of cell wall. Format: in vivo, Arabidopsis thaliana. As for the experimental part: Arabidopsis Col-0 seeds were sown on growth medium supplemented with 0.1% DMSO, 1 μM ES20, or different concentrations of ES20 analogs. […] Cellulose extraction and measurement were performed as previously described (Huang et al., 2020).

Test [1] addresses T1, YFP-AtCESA6 cellulose synthase complexes (CSCs) in root epidermal cells (Arabidopsis thaliana, UniProt Q94JQ6).
T1 construct: expressed in transfected cells; host or cells: transgenic Arabidopsis thaliana YFP-AtCESA6 seedlings (total protein extract for DARTS; root epidermal cells for imaging)
Briefly: Spinning-disk confocal live-cell imaging of CSC trafficking. Format: cell-based. Conditions: 6 μM. As for the experimental part:
For SDCM live cell imaging, seedlings were grown vertically for 5 d, and images were taken from the 2nd or 3rd epidermal cell below the first obvious root hair in the root elongation zone. Two thin strips of double-sided adhesive tape were placed on top of glass slides approximately 2 cm apart. 100 μl of ½-strength MS liquid growth medium containing 0.1% DMSO or 6 μM of ES20-1 was applied to the slide, and seedlings were mounted in the liquid medium. A 22×40 mm cover glass was placed on top of the double-sided tape for imaging. For longer term imaging during CESA velocity analysis, seedlings were mounted on a piece of 1-mm thick 0.6% Phytagel pad affixed to the glass slide to minimize compression and liquid evaporation.
To examine the cellular localization of YFP-AtCESA6 and YFP-AtCESA6; ManI-CFP, SDCM imaging was performed using a CSU-X1-A1 Yokogawa scanning unit mounted on an Olympus IX-83 microscope equipped with a 100×/1.4NA UPlanSApo oil objective (Olympus) and an Andor iXon Ultra 897BV EMCCD camera (Andor Technology). YFP and CFP fluorescence was excited with 515-nm and 445-nm laser lines and emission collected through 542/27-nm and 479/40-nm filters, respectively.
For fluorescence recovery after photobleaching (FRAP) experiments, images were collected using a Zeiss Observer Z.1 microscope, equipped with a Yokogawa CSU-X1 head and a 100×/1.46 NA PlanApo objective (Zeiss). For the PM-localized CESA6 FRAP, photobleaching was performed with a Vector scanner (Intelligent Imaging Innovations) with a 515-nm laser line at 100% power and 1 ms/scan. Timelapse images were collected at the PM with a 10-s interval for 64 frames, with photobleaching in a small region (44.2 μm^2) after the 4th frame, and recovery for total 10 min.
Image analysis was performed using ImageJ. For CESA particle density analyses, regions of interest (ROIs) without abundant Golgi signals were chosen using the Freehand selection tool. CESA particles were detected automatically on 8-bit images using the Find Maxima tool with the same noise threshold for all images. CESA particle density for each ROI was calculated by dividing the number of particles by the ROI area. To analyze CESA particle dynamics, 5-min time-lapse series with 5-s intervals were collected. Average intensity projections were generated to identify the trajectories of CSC particles. Image drift was corrected using the StackReg plugin (Thevenaz et al., 1998). Kymographs were generated, and the velocities of CESA particles were measured as the reciprocal of the slope of individual CESA particles in the kymographs. To quantify cortical vesicles, 1 μm z-series stack with 0.2 μm as the step size and 20-s time-lapses were collected. The focal plane at 0.4 μm below the PM was used for cortical SmaCC analysis. Small particles showing motility in time-lapse series were considered to be SmaCCs. For the FRAP assay of PM-localized CSCs, a smaller area (16 μm^2) within the bleached region was used for analyses. The CSC delivery events during the first 5 min of recovery were manually counted according to the criteria described previously (Li et al., Proc. Natl. Acad Sci. USA, 2016, 113, 11348-11353). […] The CSC delivery rate was calculated by dividing the number of delivery events by the measured area and time.

T1 sequence (O48946 whole entry): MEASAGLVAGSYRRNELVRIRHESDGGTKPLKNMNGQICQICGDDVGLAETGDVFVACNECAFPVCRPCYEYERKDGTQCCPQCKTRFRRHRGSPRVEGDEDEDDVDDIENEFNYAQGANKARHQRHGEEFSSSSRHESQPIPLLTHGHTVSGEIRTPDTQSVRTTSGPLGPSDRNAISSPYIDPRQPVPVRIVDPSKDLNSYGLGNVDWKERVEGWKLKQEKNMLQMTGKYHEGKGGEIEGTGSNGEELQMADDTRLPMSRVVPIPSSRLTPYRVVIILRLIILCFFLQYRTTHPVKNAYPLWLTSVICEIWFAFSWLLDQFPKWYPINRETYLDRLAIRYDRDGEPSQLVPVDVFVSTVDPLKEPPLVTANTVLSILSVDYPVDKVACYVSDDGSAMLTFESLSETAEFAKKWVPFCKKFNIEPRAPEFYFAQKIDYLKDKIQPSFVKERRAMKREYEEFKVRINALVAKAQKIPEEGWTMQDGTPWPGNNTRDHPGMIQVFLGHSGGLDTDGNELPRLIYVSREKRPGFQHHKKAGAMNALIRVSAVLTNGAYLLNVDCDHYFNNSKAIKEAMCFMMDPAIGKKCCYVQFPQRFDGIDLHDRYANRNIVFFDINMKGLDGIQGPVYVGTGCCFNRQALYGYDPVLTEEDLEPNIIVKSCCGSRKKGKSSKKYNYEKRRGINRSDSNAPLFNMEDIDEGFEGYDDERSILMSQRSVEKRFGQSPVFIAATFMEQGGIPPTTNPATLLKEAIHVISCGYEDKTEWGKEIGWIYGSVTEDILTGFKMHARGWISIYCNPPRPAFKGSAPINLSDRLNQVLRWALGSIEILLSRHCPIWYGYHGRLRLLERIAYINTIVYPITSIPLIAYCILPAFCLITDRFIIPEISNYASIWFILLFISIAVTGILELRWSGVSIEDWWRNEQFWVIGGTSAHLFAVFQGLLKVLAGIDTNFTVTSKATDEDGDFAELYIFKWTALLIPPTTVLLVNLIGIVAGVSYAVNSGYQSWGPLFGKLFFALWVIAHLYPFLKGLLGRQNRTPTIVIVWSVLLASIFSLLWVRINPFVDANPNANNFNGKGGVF
T1 sequence (Q941L0 whole entry, further chain): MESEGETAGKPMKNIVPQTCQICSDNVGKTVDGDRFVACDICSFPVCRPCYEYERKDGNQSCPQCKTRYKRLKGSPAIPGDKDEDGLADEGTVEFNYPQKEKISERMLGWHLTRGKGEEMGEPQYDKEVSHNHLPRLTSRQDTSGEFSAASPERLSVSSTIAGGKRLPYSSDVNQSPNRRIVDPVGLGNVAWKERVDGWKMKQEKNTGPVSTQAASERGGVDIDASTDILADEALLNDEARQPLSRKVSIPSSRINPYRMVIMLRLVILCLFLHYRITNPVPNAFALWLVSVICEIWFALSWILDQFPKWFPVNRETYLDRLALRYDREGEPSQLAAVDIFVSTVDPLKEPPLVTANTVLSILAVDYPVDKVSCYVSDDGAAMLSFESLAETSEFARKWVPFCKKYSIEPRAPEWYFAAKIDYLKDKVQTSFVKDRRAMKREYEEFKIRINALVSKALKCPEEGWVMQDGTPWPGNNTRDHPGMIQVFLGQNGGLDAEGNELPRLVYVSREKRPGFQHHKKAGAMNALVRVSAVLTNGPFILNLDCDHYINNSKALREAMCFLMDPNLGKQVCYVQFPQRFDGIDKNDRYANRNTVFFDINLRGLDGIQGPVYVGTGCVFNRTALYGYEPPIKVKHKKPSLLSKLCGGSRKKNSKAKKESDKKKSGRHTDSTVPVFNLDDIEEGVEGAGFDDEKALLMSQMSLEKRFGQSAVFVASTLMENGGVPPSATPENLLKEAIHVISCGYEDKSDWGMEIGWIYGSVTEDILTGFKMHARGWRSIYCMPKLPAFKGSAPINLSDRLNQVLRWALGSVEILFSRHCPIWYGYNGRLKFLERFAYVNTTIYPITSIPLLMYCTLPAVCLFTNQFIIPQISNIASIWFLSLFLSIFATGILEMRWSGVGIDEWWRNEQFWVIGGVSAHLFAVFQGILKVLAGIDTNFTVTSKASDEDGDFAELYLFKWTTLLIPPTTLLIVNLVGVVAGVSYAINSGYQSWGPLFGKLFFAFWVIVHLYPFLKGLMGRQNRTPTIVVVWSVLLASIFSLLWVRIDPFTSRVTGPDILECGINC
T1 sequence (Q94JQ6 whole entry): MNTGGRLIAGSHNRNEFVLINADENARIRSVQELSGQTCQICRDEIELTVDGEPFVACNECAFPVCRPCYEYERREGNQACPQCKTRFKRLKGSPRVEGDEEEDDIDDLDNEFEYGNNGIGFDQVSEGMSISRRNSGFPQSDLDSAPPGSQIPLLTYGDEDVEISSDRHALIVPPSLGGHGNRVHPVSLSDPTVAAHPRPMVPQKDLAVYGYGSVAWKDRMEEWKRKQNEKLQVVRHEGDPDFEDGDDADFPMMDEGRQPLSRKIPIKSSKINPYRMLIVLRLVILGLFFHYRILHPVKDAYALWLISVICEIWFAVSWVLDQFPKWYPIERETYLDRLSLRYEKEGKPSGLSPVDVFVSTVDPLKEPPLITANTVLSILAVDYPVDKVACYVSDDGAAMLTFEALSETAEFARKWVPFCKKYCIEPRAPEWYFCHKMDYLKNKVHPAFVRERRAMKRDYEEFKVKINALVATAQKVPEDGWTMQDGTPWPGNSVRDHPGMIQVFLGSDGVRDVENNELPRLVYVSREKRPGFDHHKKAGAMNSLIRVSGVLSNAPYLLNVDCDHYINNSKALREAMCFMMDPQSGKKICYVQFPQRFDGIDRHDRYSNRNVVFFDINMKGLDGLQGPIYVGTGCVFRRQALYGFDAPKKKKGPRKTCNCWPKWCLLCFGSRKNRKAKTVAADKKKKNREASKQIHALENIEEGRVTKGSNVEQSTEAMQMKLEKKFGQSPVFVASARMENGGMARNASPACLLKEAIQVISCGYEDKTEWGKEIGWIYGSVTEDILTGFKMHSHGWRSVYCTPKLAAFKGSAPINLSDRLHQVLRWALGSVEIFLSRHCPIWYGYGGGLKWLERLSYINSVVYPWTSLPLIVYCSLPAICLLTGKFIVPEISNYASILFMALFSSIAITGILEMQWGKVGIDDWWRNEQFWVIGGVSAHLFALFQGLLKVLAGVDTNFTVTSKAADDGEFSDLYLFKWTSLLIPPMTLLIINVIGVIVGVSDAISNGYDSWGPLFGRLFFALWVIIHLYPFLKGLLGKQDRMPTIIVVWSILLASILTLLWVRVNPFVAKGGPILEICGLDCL

Turning to `Cc1ccccc1C(=O)NNC(=S)NC(=O)c1ccccc1` [ES20-1], in the test with Arabidopsis Col-0 (1 μM, 7-day-old dark-grown seedlings, mean±SD, n=3), the “crystalline cellulose content in hypocotyl cell wall” value was 90 ± 6 µg/mg. The “reduction of crystalline cellulose levels in the hypocotyl” value in the test with Arabidopsis Col-0 (1 μM, 7-day-old dark-grown seedlings, vs DMSO) is reported as ~45%. The “root cell wall crystalline cellulose content” value with Arabidopsis Col-0 (7-day-old light-grown seedlings, different concentrations) is listed as “very potent in inhibiting cellulose biosynthesis in roots”. Further, in test [1] (5 min recovery after photobleaching, vs DMSO), the “reduction of CSC delivery rate to PM (FRAP)” value is ~35%. Besides, in test [1] (5 min recovery, mean±SE, n=10 cells), the “CSC delivery rate to PM (FRAP)” value is 1.41±0.19 particle/μm^2/h. In test [1] (10 min, mean±SE, n=24 cells), the “abundance of cortical SmaCCs” value is 7.07±0.34 particle/100 μm^2. In addition, in test [1] (10 min, mean±SE, n=32 cells), the “abundance (density) of CSCs at the PM” value is on record as 0.64±0.03 particle/μm^2. Further, in test [1] (10 min, vs DMSO), the “decrease of abundance of CSCs at the PM” value is on record as ~30% and the “increase of abundance of cortical SmaCCs” value was ~30%. Moreover, in test [1] (30 min, mean±SE, n=325), the “velocity of CSC particles at the PM” value came to 0.152 ± 0.005 ×10⁻⁶ cm/s. In test [1] (30 min, vs DMSO), the “decrease of velocity of CSC particles at the PM” value was ~35%. Also, in test [1] (1 h, mean±SE, n=55), the “integrated fluorescence intensity of Golgi-localized YFP-AtCESA6” value was 8684.50±535.60. Moreover, in test [1] (1 h, same cell), the “integrated fluorescence intensity of ManI-CFP” value is given as “not affected”. For the same compound, the “increase of integrated fluorescence intensity of Golgi-localized YFP-AtCESA6” value in test [1] (1 h, vs DMSO) is given as “more than 25%”.
